{"source": "ChEMBL document CHEMBL3751691", "about": "“A Journey around the Medicinal Chemistry of Hepatitis C Virus Inhibitors Targeting NS4B: From Target to Preclinical Drug Candidates” (J Med Chem, 2016)", "key": {"[1]": {"tested_on": "Hepatitis C virus", "assay": "Antiviral activity against HCV genotype 1b infected in human Huh7 cells assessed as inhibition of viral replication after 72 hrs by ELISA", "type": "functional, organism-based, Hepacivirus hominis", "details": "Huh-7, 72 h"}, "[2]": {"assay": "Binding affinity to […] by fluorescence assay", "design": "species or system Hepacivirus hominis"}, "[3]": {"tested_on": "Hepatitis C virus", "assay": "Antiviral activity against HCV genotype 1b", "type": "functional, organism-based, Hepacivirus hominis"}, "[4]": {"assay": "Inhibition of HCV NS3/4A protease", "design": "species or system Hepacivirus hominis"}, "[5]": {"tested_on": "Hepatitis C virus", "assay": "Antiviral activity against HCV genotype 1b infected in human Huh7 cells assessed as inhibition of viral replication by luciferase reporter-based viral replicon assay", "type": "functional, organism-based, Hepacivirus hominis", "details": "Huh-7"}, "[6]": {"tested_on": "Hepatitis C virus", "assay": "Antiviral activity against HCV genotype 1a infected in human Huh7 cells assessed as inhibition of viral replication by luciferase reporter-based viral replicon assay", "type": "functional, Hepacivirus hominis", "details": "subtype 1a, Huh-7"}, "[7]": {"assay": "Ratio of drug level in liver to plasma in CRL-CD-BR rat", "type": "ADME, cell-free"}, "[8]": {"assay": "Ratio of plasma concentration in CRL-CD-BR rat at 8 hrs to EC50 for antiviral activity against HCV genotype 1b", "type": "ADME, cell-free"}, "[9]": {"assay": "Ratio of plasma concentration in cynomolgus monkey at 8 hrs to EC50 for antiviral activity against HCV genotype 1b", "type": "ADME, cell-free"}, "[10]": {"assay": "Ratio of plasma concentration in beagle dog at 8 hrs to EC50 for antiviral activity against HCV genotype 1b", "type": "ADME, cell-free"}, "[11]": {"assay": "Ratio of drug level in brain to plasma in CRL-CD-BR rat", "type": "ADME, cell-free", "details": "read-out: BPR"}}}
{"smiles": "CCCCc1c(C)nn(-c2nnc3c4ccccc4n(CC)c3n2)c1C", "values": [{"measurement": "EC50", "setting": "[1]", "value": 1130, "unit": "nM"}, {"measurement": "Kd", "setting": "[2]", "value": 1200, "unit": "nM"}]}
{"smiles": "CC(C)(C)c1ccc(C(=O)Nc2sc3c(c2C(N)=O)CCCC3)cc1", "values": [{"measurement": "EC50", "setting": "[1]", "value": 870, "unit": "nM"}, {"measurement": "Kd", "setting": "[2]", "value": 300, "unit": "nM"}]}
{"smiles": "CCC[C@H](NC(=O)[C@@H]1[C@H]2CCC[C@H]2CN1C(=O)[C@@H](NC(=O)[C@@H](NC(=O)c1cnccn1)C1CCCCC1)C(C)(C)C)C(=O)C(=O)NC1CC1", "values": [{"measurement": "EC50", "setting": "[3]", "value": 350, "unit": "nM"}, {"measurement": "Ki", "setting": "[4]", "value": 7, "unit": "nM"}]}
{"smiles": "CC(C)C[C@H]1CN(C(=O)c2cc(-c3ccccc3)on2)[C@@H](CC(C)C)C(=O)N1", "values": [{"measurement": "EC90", "setting": "[5]", "value": 1100, "unit": "nM"}]}
{"smiles": "CC(C)C[C@H]1CN(C(=O)c2noc(-c3ccccc3)n2)[C@@H](CC(C)C)C(=O)N1", "values": [{"measurement": "EC90", "setting": "[5]", "value": 1400, "unit": "nM"}]}
{"smiles": "CC(C)C[C@H]1CN(C(=O)c2cc(-c3ccccc3)[nH]n2)[C@@H](CC(C)C)C(=O)N1", "values": [{"measurement": "EC90", "setting": "[5]", "value": "> 10000", "unit": "nM"}]}
{"smiles": "COc1ccc(-c2cc(C(=O)N3C[C@H](CC(C)C)NC(=O)[C@@H]3CC(C)C)no2)cc1", "values": [{"measurement": "EC90", "setting": "[5]", "value": 1300, "unit": "nM"}]}
{"smiles": "CC(C)C[C@H]1CN(C(=O)c2cc(-c3ccc(Cl)cc3)on2)[C@@H](CC(C)C)C(=O)N1", "values": [{"measurement": "EC90", "setting": "[5]", "value": 290, "unit": "nM"}]}
{"smiles": "CC(C)C[C@H]1CN(C(=O)c2cc(-c3ccc(F)cc3)on2)[C@@H](CC(C)C)C(=O)N1", "values": [{"measurement": "EC90", "setting": "[5]", "value": 130, "unit": "nM"}]}
{"smiles": "CC(C)C[C@H]1CN(C(=O)c2cc(-c3ccc([N+](=O)[O-])cc3)on2)[C@@H](CC(C)C)C(=O)N1", "values": [{"measurement": "EC90", "setting": "[5]", "value": 2600, "unit": "nM"}]}
{"smiles": "CCC[C@H]1CN(C(=O)c2cc(-c3ccc(F)cc3)on2)[C@@H](CC(C)C)C(=O)N1", "values": [{"measurement": "EC90", "setting": "[5]", "value": 100, "unit": "nM"}]}
{"smiles": "C/C=C/[C@H]1CN(C(=O)c2cc(-c3ccc(F)cc3)on2)[C@@H](CC(C)C)C(=O)N1", "values": [{"measurement": "EC90", "setting": "[5]", "value": 60, "unit": "nM"}]}
{"smiles": "CC(C)C[C@H]1C(=O)N[C@@H](C2CCCC2)CN1C(=O)c1cc(-c2ccc(F)cc2)on1", "values": [{"measurement": "EC90", "setting": "[5]", "value": 90, "unit": "nM"}]}
{"smiles": "CC(C)C[C@H]1C(=O)N[C@@H](CO)CN1C(=O)c1cc(-c2ccc(F)cc2)on1", "values": [{"measurement": "EC90", "setting": "[5]", "value": "> 10000", "unit": "nM"}]}
{"smiles": "COC[C@H]1CN(C(=O)c2cc(-c3ccc(F)cc3)on2)[C@@H](CC(C)C)C(=O)N1", "values": [{"measurement": "EC90", "setting": "[5]", "value": "> 10000", "unit": "nM"}]}
{"smiles": "CC(C)C[C@H]1C(=O)N[C@@H](c2ccccc2)CN1C(=O)c1cc(-c2ccc(F)cc2)on1", "values": [{"measurement": "EC90", "setting": "[5]", "value": 60, "unit": "nM"}]}
{"smiles": "CC(C)C[C@H]1C(=O)N[C@@H](c2cccs2)CN1C(=O)c1cc(-c2ccc(F)cc2)on1", "values": [{"measurement": "EC90", "setting": "[6]", "value": 22, "unit": "nM"}, {"measurement": "EC90", "setting": "[5]", "value": 6, "unit": "nM"}]}
{"smiles": "CCc1cc2c(cc1F)c(C#N)c(-c1ccc(S(=O)(=O)N[C@@H](C)C(F)(F)F)cn1)n2-c1ncccn1", "values": [{"measurement": "Kp", "setting": "[7]", "value": 25}, {"measurement": "Ratio", "setting": "[8]", "value": 325}, {"measurement": "Ratio", "setting": "[9]", "value": 50}, {"measurement": "Ratio", "setting": "[10]", "value": 460}, {"measurement": "Kp", "setting": "[11]", "value": 0.22}]}
{"smiles": "CC(C)C[C@H]1CN(C(=O)[C@@H]2C[C@H]2c2ccccc2)[C@@H](CC(C)C)C(=O)N1C", "values": [{"measurement": "EC90", "setting": "[5]", "value": 8800, "unit": "nM"}]}
{"smiles": "CC(C)C[C@H]1CN(C(=O)[C@@H]2C[C@H]2c2ccccc2)[C@@H](CC(C)C)CN1", "values": [{"measurement": "EC90", "setting": "[5]", "value": "> 10000", "unit": "nM"}]}
{"smiles": "CC[C@H]1C(=O)N[C@@H](CC(C)C)CN1C(=O)[C@@H]1C[C@H]1c1ccccc1", "values": [{"measurement": "EC90", "setting": "[5]", "value": "> 10000", "unit": "nM"}]}
{"smiles": "CC[C@H](C)[C@H]1CN(C(=O)[C@@H]2C[C@H]2c2ccccc2)[C@@H](CC(C)C)C(=O)N1", "values": [{"measurement": "EC90", "setting": "[5]", "value": "> 10000", "unit": "nM"}]}
{"smiles": "CCC[C@H]1CN(C(=O)[C@@H]2C[C@H]2c2ccccc2)[C@@H](CC(C)C)C(=O)N1", "values": [{"measurement": "EC90", "setting": "[5]", "value": 900, "unit": "nM"}]}
{"smiles": "CC(C)C[C@H]1CN(C(=O)/C=C/c2ccccc2)[C@@H](CC(C)C)C(=O)N1", "values": [{"measurement": "EC90", "setting": "[5]", "value": 2300, "unit": "nM"}]}
{"smiles": "CC(C)C[C@H]1CN(C(=O)/C=C\\c2ccccc2)[C@@H](CC(C)C)C(=O)N1", "values": [{"measurement": "EC90", "setting": "[5]", "value": "> 10000", "unit": "nM"}]}
